Test results from US4302472A, “Substituted N-(β-alkoxy-ethyl)-N-(4-phenoxy-benzyl)-dichloro-acetamides and process for their preparation” (Farmitalia Carlo Erba S.p.A., priority 1977, dated 1981).

Legend:
[1] = test system: Entamoeba histolytica Meah; test: In vitro antiamebic activity by serial dilutions in monophasic Pavlova medium; type: cell-based; settings: 48 hours, 37° C.; for minimal amoebicidal concentration, mean: mean of Dosage I-X
Protocol: The in vitro activity on Entamoeba histolytica Meah was determined on the products under test and on reference compounds, by the method of serial dilutions (ratio 1:1.5) in monophasic Pavlova medium with inoculation of 30,000 protozoa/ml and with incubation at 37° C. for 48 hours.
The level of activity of the compounds was determined by means of direct microscopical examination at 125 and 500 magnifications of the entire sediment of each culture. The results were expressed as minimal amoebicidal concentration in μg/ml.

[2] = test system: Entamoeba histolytica Meah; test: In vivo antiamebic activity in intestinal infection in the rat; set-up: species or system albino rats (strain:Wistar CFHB); key to Mean Score: mean score, 0 = no amoebae/ulceration to 5 = >half cecum ulcerated; settings: for Mean Score: by gavage, 20 animals, score 0 (no amoebae, no ulceration) to 5, vehicle control 3.5; for ED50: Entamoeba histolytica, po, calculated on the number of animals with score = 0, rat, by gavage twice a day for 21/2 days
Protocol: The in vivo antiamebic activity in the intestinal infection was determined with a method similar to the method described by Jones (Ann.trop.Med.Paras., 40, 130-140, 1946), as reported hereunder. Young, specific pathogen free albino rats (strain:Wistar CFHB) weighing 30-35 g and fed on a low-protein diet, were infected by intracecal injection with a suspension of trophozoites of Entamoaba histolytica Meah (250,000/rat) containing 3% of Wilson […] mucin. The substances under test and the reference products were administered in serial doses, by gavage twice a day for 21/2 days. The therapeutic effect was determined on the fifth day after infection on the basis of the presence or absence of amebic ulcers in the cecal mucosa and of viable amoebae in the cecal mucosa and in the fecal content of the cecum.
Each animal was assigned a score, according to the following scale:
score 0=no amoebae, no ulceration;
score 1=from 1 to 20 amoebae per faecal smear; no amoeba in the scrape of caecal mucosa; no ulceration;
score 2=from 20 to a very large number of amoebae per smear of feces; no ameoba in the mucosal scrape; no ulceration;
score 3=amoebae originating from microscopic lesions of the cecal mucosa;
score 4=microscopic lesions of the cecal mucosa;
score 5=more than half the cecum ulcerated by amoebic lesions.
The antiamebic activity was expressed both as ED50 calculated according to the number of animals totally free of amoebae (score=0) and as mean score for each dose level.

[3] = Approximate acute toxicity (LD50) in the mouse, single administration per os; settings: in vivo, po, measured on the seventh day
Protocol: The toxicity of the compounds of the invention is quite negligible. For example, for the compounds A and B mentioned in the foregoing Tables the approximate acute toxicity (LD50) in the mouse, determined with single administration of increasing doses and measured on the seventh day of treatment, was, per os, much higher than 800 mg/kg. Similar LD50 are found also for the other compounds of the invention, in particular for the compounds: […]

Absorption = settings: in vivo
[4] = test system: amoebae within the intestinal wall; test: Activity on amoebae within the intestinal wall; settings: in vivo

SMILES	minimal amoebicidal concentration ([1]; Dosage I) [µg/mL]	minimal amoebicidal concentration ([1]; Dosage II) [µg/mL]	minimal amoebicidal concentration ([1]; Dosage III) [µg/mL]	minimal amoebicidal concentration ([1]; Dosage IV) [µg/mL]	minimal amoebicidal concentration ([1]; Dosage IX) [µg/mL]	minimal amoebicidal concentration ([1]; Dosage V) [µg/mL]	minimal amoebicidal concentration ([1]; Dosage VI) [µg/mL]	minimal amoebicidal concentration ([1]; Dosage VII) [µg/mL]	minimal amoebicidal concentration ([1]; Dosage VIII) [µg/mL]	minimal amoebicidal concentration ([1]; Dosage X) [µg/mL]	minimal amoebicidal concentration, mean [1] [µg/mL]	Mean Score ([2]; 6.2 mg/kg × 5 times)	Mean Score ([2]; 12.5 mg/kg × 5 times)	Mean Score ([2]; 25 mg/kg × 5 times)	Mean Score ([2]; 50 mg/kg × 5 times)	ED50 [2] [mg/kg]	LD50 at 168 h [3] [mg/kg]	absorption (Absorption)	activity on amoebae within the intestinal wall [4]
CCOCCN(Cc1ccc(Oc2ccc(N)cc2)cc1)C(=O)C(Cl)Cl [Compound A, N-(β-ethoxy-ethyl)-N-[4-phenoxy-(4'-amino)-benzyl]-dichloroacetamide]	0.017	0.017	0.017	0.026	0.026	0.011	0.011	0.026	0.017	0.026	0.019	1.6	1.1	1.0	0.5	19	> 800	–	–
CCOCCN(Cc1ccc(Oc2ccc(NC(C)=O)cc2)cc1)C(=O)C(Cl)Cl [Compound B, N-(β-ethoxy-ethyl)-N-[4-phenoxy-(4'-acetamido)-benzyl]-dichloroacetamide]	0.004	0.005	0.007	0.013	0.017	0.017	0.008	0.003	0.026	0.017	0.011	–	–	–	–	–	> 800	–	–
CN(C(=O)C(Cl)Cl)c1ccc(OC(=O)c2ccco2)cc1 [Diloxanide furoate]	0.44	0.44	0.44	0.29	0.19	0.29	0.19	0.29	0.19	0.19	0.30	–	–	–	–	–	–	–	–
CCOCCN(Cc1ccc(Oc2ccc([N+](=O)[O-])cc2)cc1)C(=O)C(Cl)Cl [Etofamide]	0.026	0.026	0.058	0.058	0.058	0.026	0.017	0.039	0.017	0.039	0.036	3.3	1.6	1.3	1.0	29	–	–	–
CCOCCN(Cc1ccc(Oc2ccc(NC(=O)CN)cc2)cc1)C(=O)C(Cl)Cl [N-(β-ethoxy-ethyl)-N-[4-phenoxy-(4'-glycinylamino)-benzyl]-dichloroacetamide]	–	–	–	–	–	–	–	–	–	–	–	–	–	–	–	–	–	absorbed to a greater extent	active on amoebae within the intestinal wall itself
CCOCCN(Cc1ccc(CN(CCOCC)C(=O)C(Cl)Cl)cc1)C(=O)C(Cl)Cl [Teclozan]	0.058	0.058	0.087	0.058	0.087	0.087	0.058	0.087	0.087	0.058	0.072	–	–	–	–	–	–	–	–
